Results taken from patent US20240002846A1, “COMPOSITIONS AND METHODS FOR THE DIAGNOSIS AND TREATMENT OF ITCH” (Duke University, priority 2020, published 2024).
Entries after “also recorded” stand apart in the source; their conditions may differ.

Tests used:
mice = assay: Effect of inhibitor pretreatment on LPA-, LPC- or miR-146a-induced scratching behavior; assay type: in vivo, mouse; settings: for effect on LPC-induced itch, i.p. injection / effect on miR-146a-induced itch, i.p. injection: i.p.: SB366791 2 mg/kg, HC030031 30 mg/kg; for effect on LPC-induced itch, i.t. injection / effect on miR-146a-induced itch, i.t. injection: i.t. 30 μg
Method: Behavioral assessment. Mice were shaved at the dorsal neck 1 d before experiments. […] After injections, mice were immediately placed back to the chamber, and the scratching behavior was recorded by a Panasonic video camera for 30 min. Hind limb scratching behavior directed toward the injected area at the nape of neck was observed. One scratch is defined as a lifting of the hind limb toward the injection site and then a replacing of the limb back to the floor, regardless of how many scratching strokes take place between those two movements. Behavioral analysis was conducted by observers blinded to genotype.
Control animals received the same volume of vehicles.
Lumbar puncture was made with a 30G-needle and drugs at 5 μL of volume were delivered. Scratching behavior assay was started approximately 2 weeks after resiniferatoxin treatment.

DRG sensory neurons = assay: Ca2+ imaging in cultured DRG sensory neurons; assay type: cell-based, mouse; settings: inhibitor 10 μM
Method: Primary mouse sensory neurons were cultured following previous protocol (Chen et al. Pain 2014, 155, 2662-2672). DRGs from 2-3 weeks old male WT, Trpv1 KO, and Trpa1 KO mice were dissected and digested with 1 mg/mL collagenase (Worthington, CSL1) and 5 mg/mL dispase (Invitrogen, Waltham, MA) for 1 h, then triturated. The resulting cell suspension was filtered through a 70 μm cell strainer (BD Biosciences, Bedford, MA) to remove debris. Neurons were cultured in DH10 medium (1:1 DMEM:Hams-F12, Invitrogen, Waltham, MA) with 10% FBS (Sigma, St. Louis, MO), 100 U/mL penicillin and 100 μg/mL streptomycin (Gibco, Gaithersburg, MD) and 50 ng/mL nerve growth factor (NGF; USBiological) on coverslips coated with poly-D-lysine and laminin (Invitrogen, Waltham, MA), and incubated with 5% CO2 at 37° C. Ca^2+ imaging was performed next day after culture.
In vitro and ex vivo Ca^2+ imaging. Routine procedures were followed for Ca^2+ imaging in cultured DRG sensory neurons, epidermal keratinocytes, and HEK cells (Chen et al. J. Biol. Chem. 2016, 291, 10252-10262; Chen et al. Pain 2014, 155, 2662-2672). […] Ratios of emissions were acquired at 0.5 Hz. ΔR/R0 was determined as the fraction of the increase of a given ratio over baseline ratio divided by baseline ratio. […]

DRG neurons = assay: Ex vivo Ca2+ imaging of GCaMP3-expressing DRG explants; assay type: cell-based, mouse
Method: A previously established method was followed for ex vivo Ca^2+ imaging of DRG explants (Kim et al. Neuron 2014, 81, 873-887). Intact DRGs (L4 or L5) were isolated from naïve male or female Pirt-GCaMP3 mice (2-3 months old) and equilibrated in artificial cerebrospinal fluid (ACSF) bubbled with 95% O2/5% CO2 at room temperature. After 15 min, explants were placed in a dish with 2 mL of pre-oxygenated ACSF and imaged using a Zeiss 780 upright confocal microscope (Carl Zeiss AG, Oberkochen, Germany) with 20× water immersion objective and Z-stack approach at the 488 nm wavelength. Explants were stimulated by miR-146a or miR-146a scramble. After 15 min recording, capsaicin was then applied to identify whether the miR-146a responding neurons were TRPV1 positive. […] Ca^2+ fluorescence intensity was determined using the ImageJ software (NIH, Bethesda, MD, USA). For each neuron, the pixel intensity (Ft) was assessed for each frame and the pixel intensity recorded from the first 20 frames was taken to determine the average baseline value (F0). Ca^2+ signal amplitudes are presented as ΔF/F0, which is the ratio of fluorescence difference (Ft−F0) to baseline (F0).

[1] = tested on: extracellular release of miR-146a; assay: Extracellular release of miRs from cultured mouse keratinocytes (RT-qPCR); assay type: cell-based; settings: mKC; for effect of siRNA knockdown on LPC-elicited release of miR-146a: LPC 10 μM, 10 min, siRNA 72 h, vs Scramble+LPC; for decrease of extracellular-released miR-146a: siRNA knockdown, LPC stimulation
Method: Primary mouse keratinocytes were cultured following previous protocol (Chen et al. J. Biol. Chem. 2016, 291, 10252-10262). The epidermis from the back skin of newborn WT or keratinocyte-Trpv4 cKO mice was separated from the dermis by floating the skin on 0.25% trypsin (Gibco, Gaithersburg, MD) for 14-18 h at 4° C. Basal keratinocytes were separated from the cornified sheets by filtration through a […] cell strainer. Keratinocytes were plated on collagen I-coated dishes or glass coverslips and grown in EME media (Gibco, Gaithersburg, MD) containing 8% chelex (Bio-rad, Hercules, CA)-treated FBS with the final Ca^2+ adjusted to 0.05 mM, bovine pituitary extract (50 μg/mL), epidermal growth factor (5 ng/mL), and lx antibiotics/antimycotics (Gibco, Gaithersburg, MD) in a humidified incubator with 5% CO2 at 37° C. for 5-7 days until use. To knockdown Trpv4 in isolated keratinocytes from newborn keratinocyte-Trpv4 cKO mice, cells were treated with 4-OH tamoxifen at 500 nM for 72 h.
Measurement of released vesicles and extracellular miR-146a from cultured keratinocytes or sera Medium for the cultured keratinocytes was replaced with serum-free medium 2 h before LPC stimulation. […] Finally, cell-free supernatants were further purified using a Vesicular Isolation kit (Invitrogen, Waltham, MA) according to the manufacturer's instructions, with final product resuspended in ice-cold PBS. Total RNA extraction was then carried out using a Total RNA Isolation kit (Invitrogen, Waltham, MA). Enrichment for small RNAs was carried out by sequential increase in ethanol concentration and passing through glass-fiber filters. RNase free water was used to elute small RNAs in the final elution step. For human PBC sera or sera from ANIT-treated mice, RNA was isolated using Qiagen miRNeasy Plasma/Serum kit. cDNA synthesis from extracted RNAs was performed according to manufacturer's instructions (qSTAR miRNA kit, Origene). For qPCR, the stem-loop oligonucleotides specific for the following miRs are as follows: miR-146a-5p (GAGAACTGAATTCCATGGG, SEQ ID NO: 4), miR-let-7b (GAGGTAGTAGGTTGTGTGG, SEQ ID NO: 5), miR-125b-1 (CCCT GAGACCCTAACTTG, SEQ ID NO: 6), miR-203 (GTGGTTC TTGACAGTTCAAC, SEQ ID NO: 7), and miR-16-5p (AGCAGCAC GTAAATATTGGC, SEQ ID NO: 8). Primers were purchased from Integrated DNA Technologies company (Coralville, IA). qPCR reactions for each sample were run in triplicates, including no-template controls. MiR-16-5p was selected as a control due to the relative constancy of its expression in various cultured cell lines (Schwarzenbach et al. Clin. Chem. 2015, 61, 1333-1342). qPCR for this miR was performed in tandem with target miRs to determine the optimal normalization procedure. To investigate the effects of the specific TRPV4 inhibitors GSK205 or HC067047 and the specific MEK inhibitor U0126 on LPC-induced extracellular release of miR-146a, cells were incubated with the inhibitors for 15 min before stimulation. Control cells received the same volume of vehicle.
Vesicular release from cultured keratinocytes was quantified by detecting acetylcholinesterase (AChE) activity in the extracellular release fluid. (Gupta et al. Am. J. Physiol. Heart Circ. Physiol. 2007, 292, H3052-3056; Malik et al. Methods Mol. Biol. 2016, 1448, 237-248). CBQCA Protein Quantitation Kit (Molecular Probes, Eugene, OR) was used to assess the total protein amounts of each sample. Quantitation was carried out according to kit instructions (Fluorocet, Systems Biosciences, Palo Alto, CA). Briefly, vesicles were lysed to release esterase enzyme whose activity is measured using a florescence dye, excitation at 544 nm and emission at 590 nm. Fluostar Optima (BMG Labtech, Cary, NC) microplate reader was used to measure esterase activity. 500 ng protein equivalent of input was used per well. […]

[2] = tested on: vesicular release from mKC; assay: Vesicular release from cultured mouse keratinocytes (AChE activity); assay type: cell-based; settings: vs Scramble+LPC
Method: Vesicular release from cultured keratinocytes was quantified by detecting acetylcholinesterase (AChE) activity in the extracellular release fluid. (Gupta et al. Am. J. Physiol. Heart Circ. Physiol. 2007, 292, H3052-3056; Malik et al. Methods Mol. Biol. 2016, 1448, 237-248). CBQCA Protein Quantitation Kit (Molecular Probes, Eugene, OR) was used to assess the total protein amounts of each sample. Quantitation was carried out according to kit instructions (Fluorocet, Systems Biosciences, Palo Alto, CA). Briefly, vesicles were lysed to release esterase enzyme whose activity is measured using a florescence dye, excitation at 544 nm and emission at 590 nm. Fluostar Optima (BMG Labtech, Cary, NC) microplate reader was used to measure esterase activity. 500 ng protein equivalent of input was used per well. To determine the contribution of Rab5a and Rab27a to LPC-induced miR-146a release, cells were pre-treated with the Rab5a (5′-GUAGAAUCAA GUUUCUAAUUCUGAA-3′ SEQ ID NO: 9, 5′-[…]-3′ SEQ ID NO: 10) or Rab27a (5′-AGCUAAAA CUGAGAGCUUCAAACAG-3′ SEQ ID NO: 11, 5′-[…]-3′ SEQ ID NO: 12) siRNA (IDT, Coralville, IA) for 72 h before stimulation. Control cells were treated with scramble siRNA.

| Compound | effect on LPC-induced itch, i.p. injection (mice) | effect on miR-146a-induced itch, i.p. injection (mice) | effect on LPC-induced itch, i.t. injection (mice) | effect on miR-146a-induced itch, i.t. injection (mice) | effect on miR-146a (300 nM) induced Ca2+ influx (DRG sensory neurons) | effect on percentage of total DRG neurons responding to miR-146a (300 nM) (DRG neurons; inhibitor 10 μM) | Ca2+ signal in sensory neurons following stimulation (DRG neurons; miR-146a 300 nM, capsaicin 1 μM) | effect of siRNA knockdown on LPC-elicited release of miR-146a [1] | decrease of extracellular-released miR-146a [1] | effect of siRNA on LPC-elicited vesicular release [2] |
| --- | --- | --- | --- | --- | --- | --- | --- | --- | --- | --- |
| CC(C)c1ccc(NC(=O)Cn2cnc3c2c(=O)n(C)c(=O)n3C)cc1 [HC030031] | not significantly altered | not significantly altered | not significantly altered | not significantly altered | not significantly altered | – | – | – | – | – |
| COc1cccc(NC(=O)/C=C/c2ccc(Cl)cc2)c1 [SB366791] | significantly reduced; also recorded: significantly attenuated | significantly reduced; also recorded: significantly attenuated | significantly reduced; also recorded: significantly attenuated | significantly reduced; also recorded: significantly attenuated | significantly reduced | significantly reduced | – | – | – | – |
| COc1cc(CNC(=O)CCCC/C=C/C(C)C)ccc1O [capsaicin] | – | – | – | – | – | – | increased | – | – | – |
| Rab5a siRNA: siRNA against Rab5a, SEQ ID NO: 9 and 10 (chain 1 GUAGAAUCAAGUUUCUAAUUCUGAA; chain 2 UUCAGAAUUAGAAACUUGAUUCUACCA; listed as RNA, chemistry not given here) | – | – | – | – | – | – | – | significant decrease | ~40% | completely eliminated; also recorded: significant decrease |
| Rab27a siRNA: siRNA against Rab27a, SEQ ID NO: 11 and 12 (chain 1 AGCUAAAACUGAGAGCUUCAAACAG; chain 2 CUGUUUGAAGCUCUCAGUUUUAGCUUA; listed as RNA, chemistry not given here) | – | – | – | – | – | – | – | significant decrease | ~40% | completely eliminated; also recorded: significant decrease |
